Experimental data as given in patent US10206394B2, “Herbicidal compounds” (Syngenta Participations AG, priority 2014, dated 2019).
Like-named read-outs stand apart in the source and are kept apart here.

Tests used:
Assay in all cases: Glasshouse assay for herbicidal activity (pre- and post-emergence), percentage phytotoxicity
Type in all cases: in vivo
[1] = system: Alopecurus myosuroides (ALOMY); conditions: Alopecurus myosuroides
Method in brief: (§1)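 Seeds were sown in standard soil in pots and grown one day (pre-emergence) or about 12 days (post-emergence) before herbicide application. Plants were kept at 24/18 °C (warm-climate) or 20/16 °C (cool-climate) day/night, 16 h light, 65% humidity, watered twice daily, and damage was scored visually at 15 DAA (POST) or 20 DAA (PRE).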

Avena fatua (AVEFA) = conditions: Avena fatua
Method in brief: as §1

[2] = system: Echinochloa crus-galli (ECHCG); conditions: Echinochloa crus-galli
Method in brief: as §1

Lolium perenne (LOLPE) = conditions: Lolium perenne
Method in brief: as §1

[3] = post-emergence, 360 h, POST-emergence, rate 250 g/ha, visual score 15 DAA (100%=total damage, 0%=no damage), read-out: Post-emergence herbicidal activity (percentage phytotoxicity) ALOMY POST
[4] = pre-emergence, 480 h, PRE-emergence, rate 250 g/ha, visual score 20 DAA (100%=total damage, 0%=no damage), read-out: Pre-emergence herbicidal activity (percentage phytotoxicity) ALOMY PRE
[5] = post-emergence, 360 h, POST-emergence, rate 250 g/ha, visual score 15 DAA (100%=total damage, 0%=no damage), read-out: Post-emergence herbicidal activity (percentage phytotoxicity) AVEFA POST
[6] = pre-emergence, 480 h, PRE-emergence, rate 250 g/ha, visual score 20 DAA (100%=total damage, 0%=no damage), read-out: Pre-emergence herbicidal activity (percentage phytotoxicity) AVEFA PRE
[7] = post-emergence, 360 h, POST-emergence, rate 250 g/ha, visual score 15 DAA (100%=total damage, 0%=no damage), read-out: Post-emergence herbicidal activity (percentage phytotoxicity) ECHCG POST
[8] = pre-emergence, 480 h, PRE-emergence, rate 250 g/ha, visual score 20 DAA (100%=total damage, 0%=no damage), read-out: Pre-emergence herbicidal activity (percentage phytotoxicity) ECHCG PRE
[9] = post-emergence, 360 h, POST-emergence, rate 250 g/ha, visual score 15 DAA (100%=total damage, 0%=no damage), read-out: Post-emergence herbicidal activity (percentage phytotoxicity) LOLPE POST
[10] = pre-emergence, 480 h, PRE-emergence, rate 250 g/ha, visual score 20 DAA (100%=total damage, 0%=no damage), read-out: Pre-emergence herbicidal activity (percentage phytotoxicity) LOLPE PRE

Q: Which pest or weed control at 250 g/ha [1, 3] does the source give for Cc1cc(-c2ncc(Cl)cc2F)cc(C)c1C1C(=O)CC(CC(=O)NCC(C)(C)C)C1=O (stereo not shown) [Compound B178] here?
A: 100%

Q: And the pest or weed control at 250 g/ha [1, 4]?
A: 100%

Q: And the pest or weed control at 250 g/ha (Avena fatua (AVEFA); [5])?
A: 90%

Q: And the pest or weed control at 250 g/ha (Avena fatua (AVEFA); [6])?
A: 90%

Q: What about the pest or weed control at 250 g/ha [2, 7] of the same compound?
A: 100%

Q: What about the pest or weed control at 250 g/ha [2, 8] of the same compound?
A: 100%

Q: What about the pest or weed control at 250 g/ha (Lolium perenne (LOLPE); [9]) of the same compound?
A: 100%

Q: And the pest or weed control at 250 g/ha (Lolium perenne (LOLPE); [10])?
A: 100%

Q: What does the source list for Cc1ccc(CNC(=O)CC2CC(=O)C(c3c(C)cc(-c4ccc(Cl)cn4)cc3C)C2=O)cc1 (stereo not shown) [Compound B375]?
A: pest or weed control at 250 g/ha ([1]; post-emergence, 360 h, Rate 250 g/ha, post-emergence, visual assessment 15 DAA, 100%=total damage, 0%=no damage, read-out: Post-emergence herbicidal activity (percentage phytotoxicity) ALOMY POST): 40%; pest or weed control at 250 g/ha ([1]; pre-emergence, 480 h, Rate 250 g/ha, pre-emergence, visual assessment 20 DAA, 100%=total damage, 0%=no damage, read-out: Pre-emergence herbicidal activity (percentage phytotoxicity) ALOMY PRE): 60%; pest or weed control at 250 g/ha (Avena fatua (AVEFA); post-emergence, 360 h, Rate 250 g/ha, post-emergence, visual assessment 15 DAA, 100%=total damage, 0%=no damage, read-out: Post-emergence herbicidal activity (percentage phytotoxicity) AVEFA POST): 70%; pest or weed control at 250 g/ha (Avena fatua (AVEFA); pre-emergence, 480 h, Rate 250 g/ha, pre-emergence, visual assessment 20 DAA, 100%=total damage, 0%=no damage, read-out: Pre-emergence herbicidal activity (percentage phytotoxicity) AVEFA PRE): 70%; pest or weed control at 250 g/ha ([2]; post-emergence, 360 h, Rate 250 g/ha, post-emergence, visual assessment 15 DAA, 100%=total damage, 0%=no damage, read-out: Post-emergence herbicidal activity (percentage phytotoxicity) ECHCG POST): 100%; pest or weed control at 250 g/ha ([2]; pre-emergence, 480 h, Rate 250 g/ha, pre-emergence, visual assessment 20 DAA, 100%=total damage, 0%=no damage, read-out: Pre-emergence herbicidal activity (percentage phytotoxicity) ECHCG PRE): 90%; pest or weed control at 250 g/ha (Lolium perenne (LOLPE); post-emergence, 360 h, Rate 250 g/ha, post-emergence, visual assessment 15 DAA, 100%=total damage, 0%=no damage, read-out: Post-emergence herbicidal activity (percentage phytotoxicity) LOLPE POST): 80%; pest or weed control at 250 g/ha (Lolium perenne (LOLPE); pre-emergence, 480 h, Rate 250 g/ha, pre-emergence, visual assessment 20 DAA, 100%=total damage, 0%=no damage, read-out: Pre-emergence herbicidal activity (percentage phytotoxicity) LOLPE PRE): 80%

Q: Which results are given for CCc1cc(OCC(F)(F)F)cc(C)c1C1C(=O)CC(CC(=O)NCc2ccc(OC)cc2)C1=O (stereo not shown) [Compound B215]?
A: pest or weed control at 250 g/ha [1, 3]: 100%; pest or weed control at 250 g/ha [1, 4]: 90%; pest or weed control at 250 g/ha (Avena fatua (AVEFA); [5]): 100%; pest or weed control at 250 g/ha (Avena fatua (AVEFA); [6]): 80%; pest or weed control at 250 g/ha [2, 7]: 100%; pest or weed control at 250 g/ha [2, 8]: 90%; pest or weed control at 250 g/ha (Lolium perenne (LOLPE); [9]): 100%; pest or weed control at 250 g/ha (Lolium perenne (LOLPE); [10]): 90%

Q: With C/C=C/c1cc(C)c(C2C(=O)CC(CC(=O)NC(C)(C)C)C2=O)c(CC)c1 (stereo not shown) [Compound B136] as the compound, how does the pest or weed control at 16 g/ha ([1]; post-emergence, 360 h, post-emergence, 15 DAA, read-out: Post-emergence herbicidal activity (percentage phytotoxicity) ALOMY POST) read?
A: 60%

Q: What about the pest or weed control at 16 g/ha ([1]; pre-emergence, 480 h, pre-emergence, 20 DAA, read-out: Pre-emergence herbicidal activity (percentage phytotoxicity) ALOMY PRE) of the same compound?
A: 90%

Q: What about the pest or weed control at 16 g/ha (Avena fatua (AVEFA); post-emergence, 360 h, post-emergence, 15 DAA, read-out: Post-emergence herbicidal activity (percentage phytotoxicity) AVEFA POST) of the same compound?
A: 100%

Q: And the pest or weed control at 16 g/ha (Avena fatua (AVEFA); pre-emergence, 480 h, pre-emergence, 20 DAA, read-out: Pre-emergence herbicidal activity (percentage phytotoxicity) AVEFA PRE)?
A: 100%

Q: What about the pest or weed control at 16 g/ha ([2]; post-emergence, 360 h, post-emergence, 15 DAA, read-out: Post-emergence herbicidal activity (percentage phytotoxicity) ECHCG POST) of the same compound?
A: 90%

Q: And the pest or weed control at 16 g/ha ([2]; pre-emergence, 480 h, pre-emergence, 20 DAA, read-out: Pre-emergence herbicidal activity (percentage phytotoxicity) ECHCG PRE)?
A: 100%

Q: And the pest or weed control at 16 g/ha (Lolium perenne (LOLPE); post-emergence, 360 h, post-emergence, 15 DAA, read-out: Post-emergence herbicidal activity (percentage phytotoxicity) LOLPE POST)?
A: 100%

Q: And the pest or weed control at 16 g/ha (Lolium perenne (LOLPE); pre-emergence, 480 h, pre-emergence, 20 DAA, read-out: Pre-emergence herbicidal activity (percentage phytotoxicity) LOLPE PRE)?
A: 90%

Q: What does the source list for C=C(F)CNC(=O)CC1CC(=O)C(c2c(C)cc(C)cc2C)C1=O (stereo not shown) [Compound B92]?
A: pest or weed control at 250 g/ha ([1]; post-emergence, 360 h, 250 g/ha, post-emergence, 15 DAA, visual assessment (100%=total damage, 0%=no damage), read-out: Post-emergence herbicidal activity (percentage phytotoxicity) ALOMY POST): 90%; pest or weed control at 250 g/ha ([1]; pre-emergence, 480 h, 250 g/ha, pre-emergence, 20 DAA, visual assessment (100%=total damage, 0%=no damage), read-out: Pre-emergence herbicidal activity (percentage phytotoxicity) ALOMY PRE): 90%; pest or weed control at 250 g/ha (Avena fatua (AVEFA); post-emergence, 360 h, 250 g/ha, post-emergence, 15 DAA, visual assessment (100%=total damage, 0%=no damage), read-out: Post-emergence herbicidal activity (percentage phytotoxicity) AVEFA POST): 80%; pest or weed control at 250 g/ha (Avena fatua (AVEFA); pre-emergence, 480 h, 250 g/ha, pre-emergence, 20 DAA, visual assessment (100%=total damage, 0%=no damage), read-out: Pre-emergence herbicidal activity (percentage phytotoxicity) AVEFA PRE): 30%; pest or weed control at 250 g/ha ([2]; post-emergence, 360 h, 250 g/ha, post-emergence, 15 DAA, visual assessment (100%=total damage, 0%=no damage), read-out: Post-emergence herbicidal activity (percentage phytotoxicity) ECHCG POST): 80%; pest or weed control at 250 g/ha ([2]; pre-emergence, 480 h, 250 g/ha, pre-emergence, 20 DAA, visual assessment (100%=total damage, 0%=no damage), read-out: Pre-emergence herbicidal activity (percentage phytotoxicity) ECHCG PRE): 90%; pest or weed control at 250 g/ha (Lolium perenne (LOLPE); post-emergence, 360 h, 250 g/ha, post-emergence, 15 DAA, visual assessment (100%=total damage, 0%=no damage), read-out: Post-emergence herbicidal activity (percentage phytotoxicity) LOLPE POST): 90%; pest or weed control at 250 g/ha (Lolium perenne (LOLPE); pre-emergence, 480 h, 250 g/ha, pre-emergence, 20 DAA, visual assessment (100%=total damage, 0%=no damage), read-out: Pre-emergence herbicidal activity (percentage phytotoxicity) LOLPE PRE): 100%
